Data on three compounds can be found in ChEMBL document CHEMBL2086381, “Identification of 4,5-dihydro-4-hydroxygeldanamycins as shunt products of geldanamycin biosynthesis” (J Nat Prod, 2012).

The test deals with HepG2. Description: Cytotoxicity against human HepG2 cells. In kind it is functional, cell-based.
The IC50 is the concentration that gives 50% inhibition. A low value points to inhibition by little substance. `COC1=C2C[C@@H](C)C[C@H](OC)[C@H](O)[C@@H](C)/C=C(\C)[C@H](OC(N)=O)[C@@H](OC)C[C@H](O)/C=C(\C)C(=O)NC(=CC1=O)C2=O`: 10.5 µM corresponded to half-maximal inhibition (IC50). This counts as double-digit micromolar.

`COC1=C2C[C@@H](C)C[C@H](OC)[C@H](O)[C@@H](C)/C=C(\C)[C@H](OC(N)=O)[C@@H](OC)/C=C\C=C(/C)C(=O)NC(=CC1=O)C2=O` [GELDANAMYCIN]: the IC50 stood at 0.37 µM. In the case of `COC1=C2C[C@@H](C)C[C@H](OC)[C@H](O)[C@@H](C)/C=C(\C)[C@H](OC(N)=O)[C@@H](OC)C[C@@H](O)/C=C(\C)C(=O)NC(=CC1=O)C2=O` it was 10.8 µM.
